For orientation: Papp A→B means how fast a substance crosses the layer from the apical side. The EC50 is the concentration at which the effect is half-maximal. In general, AUC(0-inf) refers to the area under the concentration-time curve extrapolated to infinity.

One data set relates to Rat hepatocytes. Briefly: Hepatocyte clearance, rat hepatocytes. Format: in vitro ADME. The note with it: percent unchanged.
A further data set concerns the target T1, human PXR (Homo sapiens, UniProt O75469).
T1 construct: host or cells: DPX-2 cell line (derived from HepG2)
T1 sequence (O75469 1-434): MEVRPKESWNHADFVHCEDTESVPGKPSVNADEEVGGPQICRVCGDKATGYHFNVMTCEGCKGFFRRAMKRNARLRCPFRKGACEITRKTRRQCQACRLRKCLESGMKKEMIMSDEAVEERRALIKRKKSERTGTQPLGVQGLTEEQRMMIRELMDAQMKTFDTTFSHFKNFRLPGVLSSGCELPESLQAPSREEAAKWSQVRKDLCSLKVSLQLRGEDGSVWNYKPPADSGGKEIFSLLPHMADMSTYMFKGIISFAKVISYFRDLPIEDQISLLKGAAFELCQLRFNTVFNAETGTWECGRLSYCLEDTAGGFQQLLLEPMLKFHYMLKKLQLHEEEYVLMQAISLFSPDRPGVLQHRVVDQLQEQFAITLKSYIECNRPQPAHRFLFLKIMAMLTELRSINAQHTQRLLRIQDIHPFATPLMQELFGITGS
In words: PXR assay: PXR mediated CYP3A4 induction in DPX-2 cell line. The note with it: DPX-2 cells. It counts as cell-based. On the procedure: D. Experimental Protocol for PXR Assay
The propensity for PXR mediated CYP3A4 induction is assessed using the DPX-2 cell line in vitro. This cell line, which has been licensed from Puracyp Inc. was derived from HepG2 cells and has been stably transfected with genes encoding human PXR as well as a modified luciferase reporter linked to the CYP3A4 promoter region and related distal and proximal enhancers.
The assay is run in 384 well format and each test article is administered in 11 doses ranging from 0.1 to 60 μM. On day 1, DPX-2 cells which have previously been expanded in-house and cryopreserved are thawed and seeded in tissue culture plates. The following day, media is changed and cells are cultured in media containing test article, vehicle control or the positive control compound, the clinically validated CYP3A4 inducer rifampicin. Cells are cultured in the presence of test article for 48 hours and then cell viability is assessed using fluorescence based assay (Cell Titer-Fluor, Promega) with an EnVision Plate Reader (PerkinElmer). Subsequently, CYP3A4 transactivation, which is proportional to luciferase activity, is measured by reading luminescense using the Promega One-Glo reagent system using the same plate reader.
Data processing within the Genedata software package allows reporting of max fold induction compared to vehicle control, an EC50 value for CYP3A4 inducers and an 11 point-dose response curve.

The nature of data set [1]: MDCK-Wild Type permeability, 96 well + 0.1% BSA. Format: in vitro ADME. To be noted: dog, MDCK, A-B direction, read-out: MDCK-Wild Type-Permeability 96 well + 0.1% BSA Papp compound (A-B).
For the next data set, the target named is T2, F508del-CFTR (Homo sapiens, UniProt P13569, DEL508-508).
T2 construct: expressed in transfected cells
T2 sequence (P13569 with tags, fused parts or gaps DEL508-508): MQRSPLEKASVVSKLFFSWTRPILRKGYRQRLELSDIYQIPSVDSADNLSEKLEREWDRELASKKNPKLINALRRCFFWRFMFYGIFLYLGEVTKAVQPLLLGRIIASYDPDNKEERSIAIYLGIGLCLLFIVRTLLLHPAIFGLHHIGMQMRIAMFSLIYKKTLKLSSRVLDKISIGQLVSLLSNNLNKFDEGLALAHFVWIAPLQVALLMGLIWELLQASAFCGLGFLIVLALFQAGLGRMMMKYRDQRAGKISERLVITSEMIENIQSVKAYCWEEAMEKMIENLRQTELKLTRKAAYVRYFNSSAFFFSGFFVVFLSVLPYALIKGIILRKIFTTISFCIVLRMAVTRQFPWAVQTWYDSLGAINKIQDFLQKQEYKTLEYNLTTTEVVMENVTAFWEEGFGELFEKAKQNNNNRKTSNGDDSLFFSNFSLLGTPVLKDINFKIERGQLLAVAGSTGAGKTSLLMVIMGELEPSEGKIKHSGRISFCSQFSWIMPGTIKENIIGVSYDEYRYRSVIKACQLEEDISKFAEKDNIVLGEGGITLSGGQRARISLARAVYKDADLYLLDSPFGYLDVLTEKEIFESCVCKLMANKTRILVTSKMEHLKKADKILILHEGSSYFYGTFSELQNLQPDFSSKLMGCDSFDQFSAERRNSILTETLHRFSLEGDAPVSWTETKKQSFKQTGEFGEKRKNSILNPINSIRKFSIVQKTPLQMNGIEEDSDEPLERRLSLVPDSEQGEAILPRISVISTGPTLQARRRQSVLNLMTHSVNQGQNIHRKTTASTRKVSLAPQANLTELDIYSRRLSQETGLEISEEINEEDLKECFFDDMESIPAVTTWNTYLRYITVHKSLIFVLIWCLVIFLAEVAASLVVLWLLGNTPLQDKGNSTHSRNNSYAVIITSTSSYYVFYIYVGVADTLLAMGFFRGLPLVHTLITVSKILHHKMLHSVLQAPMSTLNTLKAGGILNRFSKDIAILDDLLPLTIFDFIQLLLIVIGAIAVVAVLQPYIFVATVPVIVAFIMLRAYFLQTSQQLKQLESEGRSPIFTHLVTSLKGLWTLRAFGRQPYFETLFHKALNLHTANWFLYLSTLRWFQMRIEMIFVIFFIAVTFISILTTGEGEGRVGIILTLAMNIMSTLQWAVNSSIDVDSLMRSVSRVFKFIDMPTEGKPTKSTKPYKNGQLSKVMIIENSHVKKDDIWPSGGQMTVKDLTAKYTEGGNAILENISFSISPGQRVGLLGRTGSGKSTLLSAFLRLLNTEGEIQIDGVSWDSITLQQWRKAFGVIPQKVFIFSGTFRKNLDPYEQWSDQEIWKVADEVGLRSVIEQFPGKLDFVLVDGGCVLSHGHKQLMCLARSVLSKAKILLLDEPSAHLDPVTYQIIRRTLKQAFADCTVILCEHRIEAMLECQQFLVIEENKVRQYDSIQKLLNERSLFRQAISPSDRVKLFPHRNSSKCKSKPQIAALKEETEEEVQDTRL
Briefly: Membrane potential optical (FLIPR) assay for F508del-CFTR modulators in NIH 3T3 cells. Format: cell-based. To be noted: NIH 3T3 cells expressing F508del; assay A1; read-out: CFTRdF508 Cor 3T3 FLIPR 384 CFTRdF508 MP 3T3 770 EC50. An excerpt: Membrane Potential Optical Methods for Assaying Properties of F508del-CFTR Modulators
The assay utilizes fluorescent voltage sensing dyes to measure changes in membrane potential using a fluorescent plate reader (e.g., FLIPR III, Molecular Devices, Inc.) as a readout for increase in functional F508del in NIH 3T3 cells. The driving force for the response is the creation of a chloride ion gradient in conjunction with channel activation and concurrent with compound treatment by a single liquid addition step after the cells have previously been loaded with a voltage sensing dye.
A1. Identification of F508del-CFTR Modulators
To identify modulators of F508del, a fluorescence based HTS assay format was developed. This HTS assay utilizes fluorescent voltage sensing dyes to measure changes in membrane potential on the FLIPR III as a measurement for increase in gating (conductance) of F508del NIH 3T3 cells. The driving force for the response is the creation of a chloride ion gradient in conjunction with channel activation and concurrent with compound treatment by a single liquid addition step after the cells have previously been loaded with a voltage sensing dye.
Bath Solution #1: (in mM) NaCl 160, KCl 4.5, CaCl2 2, MgCl2 1, HEPES 10, pH 7.4 with NaOH, Glucose 10.
Chloride-free bath solution: Chloride salts in Bath Solution #1 (above) are substituted with gluconate salts.
NIH3T3 mouse fibroblasts stably expressing F508del were used for optical measurements of membrane potential. The cells were maintained at 37° C. in 5% CO2 and 90% humidity in Dulbecco's modified Eagle's medium supplemented with 2 mM glutamine, 10% fetal bovine serum, 1×NEAA, β-ME, 1× pen/strep, and 25 mM HEPES in 175 cm^2 culture flasks. For all optical assays, the cells were seeded at 12,000 cells/well in 384-well matrigel-coated plates and cultured for 18-24 hrs at 37° C. for the potentiator assay. For the correction assay, the cells were cultured at 37° C. with and without compounds for 18-24 hours.

A further data set can be described thus: Rat IV and PO PK studies. Format: in vivo, male Sprague-Dawley rats. The note with it: for RAT PLASMA-RAW IV-bolus CL_drg: nominal 3.0 mg/kg; for RAT PLASMA-RAW PO % F_drg / AUC(0-inf): nominal 3 mg/kg, PO; for AUC(0-inf): male, Sprague-Dawley, plasma, read-out: RAT PLASMA-RAW PO AUC (0-inf)_drg. On the procedure: C. Experimental Protocol for Rat IV and PO PK Studies
The tested compound was administered to male Sprague-Dawley rats as a single nominal intravenous dose of 3.0 mg/kg as a solution in 10% NMP, 10% solution, 15% EtOH, 35% PEG400 and 30% D5W. The tested compound was also administered to male Sprague-Dawley rats at single nominal oral dose of 3 mg/kg as a solution in 5% NMP, 30% PEG400, 10% TPGS, 5% PVP-K30 at 5 mL/kg dose volume. Analyses of plasma and dose preparations were performed using LC/MS/MS.
Plasma concentration-time profiles of the tested compound in Sprague-Dawley rats at scheduled (nominal) sampling times were analyzed by noncompartmental pharmacokinetic methods using PK function within Watson LIMS software, Version 7.4.2 (Thermo Scientific Inc, Waltham, Mass.). AUC values were calculated using the linear trapezoidal rule.

Structures are written as SMILES.

Turning to `C[C@@H]1CN(c2nc(-n3ccc(OCC(C)(C)C)n3)ccc2C(=O)NS(=O)(=O)c2ccccc2)C(C)(C)C1` [C, reference compound], in the data set on Rat hepatocytes, the “Hepatocyte clearance-Rat Rat hepatocytes CL pct_unchanged” value is given as 6%. Moreover, the “CYP3A4 Induction-PXR human PXR internal Max % Activity” value on human PXR came to 9%. In addition, the Papp A→B in data set [1] was determined as 1.5 ×10⁻⁶ cm/s. Also, the EC50 on F508del-CFTR amounted to 120 nM. The “RAT PLASMA-RAW IV-bolus CL_drg” value in “Rat IV and PO PK studies” is listed as 29.2 mL/min/kg.
For the compound `Cc1c(S(=O)(=O)NC(=O)c2ccc(-n3ccc(OCC4(C(F)(F)F)CC4)n3)nc2N2C[C@@H](C)CC2(C)C)cnn1C` [Compound 9, N-(1,5-dimethylpyrazol-4-yl)sulfonyl-6-[3-[[1-(trifluoromethyl)cyclopropyl]methoxy]pyrazol-1-yl]-2-[(4S)-2,2,4-trimethylpyrrolidin-1-yl]pyridine-3-carboxamide], the “Hepatocyte clearance-Rat Rat hepatocytes CL pct_unchanged” value in the data set with Rat hepatocytes is listed as 30%. Further, at human PXR, the “CYP3A4 Induction-PXR human PXR internal Max % Activity” value is 7%. Further, the apical-to-basolateral permeability (Papp A→B) in data set [1] is 6.1 ×10⁻⁶ cm/s. The EC50 at F508del-CFTR was determined as 420 nM. In addition, in “Rat IV and PO PK studies”, the “RAT PLASMA-RAW IV-bolus CL_drg” value is recorded as 1.7 mL/min/kg, the “RAT PLASMA-RAW PO % F_drg” value came to 99% and the AUC(0-inf) came out at 23400 ng·h/mL.
In the case of `Cc1c(S(=O)(=O)NC(=O)c2ccc(-n3ccc(OCC(C)(C)C(F)(F)F)n3)nc2N2C[C@@H](C)CC2(C)C)cnn1C` [Compound 13, N-(1,5-dimethylpyrazol-4-yl)sulfonyl-6-[3-(3,3,3-trifluoro-2,2-dimethyl-propoxy)pyrazol-1-yl]-2-[(4S)-2,2,4-trimethylpyrrolidin-1-yl]pyridine-3-carboxamide], the “Hepatocyte clearance-Rat Rat hepatocytes CL pct_unchanged” value with Rat hepatocytes is 117%. Also, the “CYP3A4 Induction-PXR human PXR internal Max % Activity” value at human PXR came out at 4%. Besides, the Papp A→B in data set [1] is 11.7 ×10⁻⁶ cm/s. Besides, the EC50 on F508del-CFTR was determined as 130 nM. For the same compound, in the data set “Rat IV and PO PK studies”, the “RAT PLASMA-RAW IV-bolus CL_drg” value stood at 3 mL/min/kg, the “RAT PLASMA-RAW PO % F_drg” value is given as 65% and the AUC(0-inf) was 13400 ng·h/mL.
On to `Cc1nn(C)c(C)c1S(=O)(=O)NC(=O)c1ccc(-n2ccc(OCC(C)(C)C(F)(F)F)n2)nc1N1C[C@@H](C)CC1(C)C` [Compound 17, 6-[3-(3,3,3-trifluoro-2,2-dimethyl-propoxy)pyrazol-1-yl]-N-(1,3,5-trimethylpyrazol-4-yl)sulfonyl-2-[(4S)-2,2,4-trimethylpyrrolidin-1-yl]pyridine-3-carboxamide], for which the “Hepatocyte clearance-Rat Rat hepatocytes CL pct_unchanged” value with Rat hepatocytes was 19%. The “CYP3A4 Induction-PXR human PXR internal Max % Activity” value on human PXR amounted to 3%. Also, the Papp A→B in data set [1] was found to be 3.8 ×10⁻⁶ cm/s. In addition, on F508del-CFTR, the EC50 worked out at 170 nM.
For the compound `Cc1nn(C)c(C)c1S(=O)(=O)NC(=O)c1ccc(-n2ccc(OCCC3(C(F)(F)F)CC3)n2)nc1N1C[C@@H](C)CC1(C)C` [Compound 18, 6-[3-[2-[1-(trifluoromethyl)cyclopropyl]ethoxy]pyrazol-1-yl]-N-(1,3,5-trimethylpyrazol-4-yl)sulfonyl-2-[(4S)-2,2,4-trimethylpyrrolidin-1-yl]pyridine-3-carboxamide], in the data set with Rat hepatocytes, the “Hepatocyte clearance-Rat Rat hepatocytes CL pct_unchanged” value is recorded as 0%. Moreover, the “CYP3A4 Induction-PXR human PXR internal Max % Activity” value at human PXR came out at 5%. The apical-to-basolateral permeability (Papp A→B) in data set [1] was 8 ×10⁻⁶ cm/s. Moreover, the EC50 at F508del-CFTR was 170 nM.
As to `Cc1nn(C)cc1S(=O)(=O)NC(=O)c1ccc(-n2ccc(OC3CC3C(F)(F)F)n2)nc1N1C[C@@H](C)CC1(C)C` (stereo partly drawn) [Compound 34, N-(1,3-dimethylpyrazol-4-yl)sulfonyl-6-[3-[2-(trifluoromethyl)cyclopropoxy]pyrazol-1-yl]-2-[(4S)-2,2,4-trimethylpyrrolidin-1-yl]pyridine-3-carboxamide], in the data set on Rat hepatocytes, the “Hepatocyte clearance-Rat Rat hepatocytes CL pct_unchanged” value is reported as 39%. For the same compound, on human PXR, the “CYP3A4 Induction-PXR human PXR internal Max % Activity” value came out at 6%. For the same compound, in data set [1], the apical-to-basolateral permeability (Papp A→B) came out at 7.5 ×10⁻⁶ cm/s. Further, at F508del-CFTR, the EC50 was determined as 610 nM.
Regarding `Cc1nn(C)cc1S(=O)(=O)NC(=O)c1ccc(-n2ccc(OCCC(C3CC3)C3CC3)n2)nc1N1C[C@@H](C)CC1(C)C` [Compound 38, 6-[3-(3,3-dicyclopropylpropoxy)pyrazol-1-yl]-N-(1,3-dimethylpyrazol-4-yl)sulfonyl-2-[(4S)-2,2,4-trimethylpyrrolidin-1-yl]pyridine-3-carboxamide], the “Hepatocyte clearance-Rat Rat hepatocytes CL pct_unchanged” value in the data set with Rat hepatocytes was found to be 56%. Also, the “CYP3A4 Induction-PXR human PXR internal Max % Activity” value on human PXR turned out to be 2%. Moreover, the Papp A→B in data set [1] was determined as 1 ×10⁻⁶ cm/s. Also, the EC50 on F508del-CFTR came to 110 nM.
As to `Cc1nn(C)cc1S(=O)(=O)NC(=O)c1ccc(-n2ccc(OCC3C[C@@H]4CC[C@H]3C4)n2)nc1N1C[C@@H](C)CC1(C)C` (stereo partly drawn) [Compound 50, N-(1,3-dimethylpyrazol-4-yl)sulfonyl-6-[3-[[(1S,4R)-norbornan-2-yl]methoxy]pyrazol-1-yl]-2-[(4S)-2,2,4-trimethylpyrrolidin-1-yl]pyridine-3-carboxamide], in the data set with Rat hepatocytes, the “Hepatocyte clearance-Rat Rat hepatocytes CL pct_unchanged” value is 20%. For the same compound, the “CYP3A4 Induction-PXR human PXR internal Max % Activity” value on human PXR amounted to 4%. In data set [1], the Papp A→B is 1.3 ×10⁻⁶ cm/s. In addition, the EC50 on F508del-CFTR worked out at 80 nM.
For `Cc1nn(C)cc1S(=O)(=O)NC(=O)c1ccc(-n2ccc(O[C@H]3C[C@@H]4CC[C@H]3C4)n2)nc1N1C[C@@H](C)CC1(C)C` [Compound 51, N-(1,3-dimethylpyrazol-4-yl)sulfonyl-6-[3-[(1S,2S,4R)-norbornan-2-yl]oxypyrazol-1-yl]-2-[(4S)-2,2,4-trimethylpyrrolidin-1-yl]pyridine-3-carboxamide], the “Hepatocyte clearance-Rat Rat hepatocytes CL pct_unchanged” value with Rat hepatocytes turned out to be 29%. Also, the “CYP3A4 Induction-PXR human PXR internal Max % Activity” value at human PXR was found to be 6%. Besides, in data set [1], the apparent permeability from apical to basolateral (Papp A→B) stood at 2.9 ×10⁻⁶ cm/s. The EC50 at F508del-CFTR was 150 nM.
For the compound `Cc1nn(C)cc1S(=O)(=O)NC(=O)c1ccc(-n2ccc(OCC3C4CCC3CC4)n2)nc1N1C[C@@H](C)CC1(C)C` (stereo partly drawn) [Compound 52, N-(1,3-dimethylpyrazol-4-yl)sulfonyl-6-[3-(norbornan-7-ylmethoxy)pyrazol-1-yl]-2-[(4S)-2,2,4-trimethylpyrrolidin-1-yl]pyridine-3-carboxamide], the “Hepatocyte clearance-Rat Rat hepatocytes CL pct_unchanged” value in the data set with Rat hepatocytes is 18%. Further, the “CYP3A4 Induction-PXR human PXR internal Max % Activity” value on human PXR was found to be 2%. In addition, in data set [1], the apical-to-basolateral permeability (Papp A→B) came out at 2 ×10⁻⁶ cm/s. Moreover, the EC50 at F508del-CFTR is 170 nM.

The values are drawn from US10793547B2, “Modulator of the cystic fibrosis transmembrane conductance regulator, pharmaceutical compositions, methods of treatment, and process for making the modulator” (Vertex Pharmaceuticals Incorporated, priority 2016, dated 2020).
